Assay results published in patent US20040006236A1, “Diaminopropionic acid derivatives” (priority 1999, published 2004).

How the values were obtained:
[1] = test system: Mac-1 and LFA-1-mediated neutrophil binding to immobilized ICAM-1; assay: Neutrophil (Mac-1 and LFA-1)/ICAM-1 cell-based screening assay; details: human neutrophils
Method: Both Mac-1 and LFA-1 are expressed on the cell surface of neutrophils. The ability of antagonists to inhibit Mac-1 and LFA-1-mediated neutrophil binding to immobilized ICAM-1 was quantitated by a cell based assay. Typically, fusion protein consisting of the entire extracellular domain of human ICAM-1 and the Fc domain of human IgG (5dICAM-Ig) was coated onto 96 well microtiter plates (1 μg in 100 μL TBS) overnight at 4° C. The plates were then blocked with 150 μL of 10% PVP in TBS for 1 h at 37° C. Plates were washed 3 times (150 μL each) with TBS. Human neutrophils were purified from whole blood from healthy volunteers using LSM (ICN). Cells (8×10^6/mL) were fluorescently labeled with 6-carboxyfluorescein (100 μg/mL) for 40 min in IMDM/1 mM MgCl2/1.2 mM CaCl2 as described in Example 287. Cells (8×10^6/mL) were stimulated with f-Met-Leu-Phe (10 μM) for 5 min at room temperature just prior to being used in the assay, and diluted to 2×10^6 cells/mL with RPMI/0.05% BSA/0.2 mM MnCl2. Stock solutions (10 mM) of test compounds were diluted to 2.5 mM with DMSO. A series of 1:4 dilutions in DMSO were performed to achieve a concentration range of 38.2 nM-2.5 mM. Each sample was further diluted 50-fold with RPMI/0.05% BSA/0.2 mM MnCl2. Equal volumes of labeled cells were then added to assay tubes containing diluted compound. Final concentrations of compound tested in the assay ranged from 0.38 nM-25 μM with a cell concentration of 1×10^6 per mL. Cells were incubated for 10 min at 37° C. with gentle shaking, then dispensed (100 μL per well) onto ICAM-1 coated plates and incubated for 30 min at 37° C./5% CO2. Unbound cells were washed and plates were read on a Cytofluor™ 2300 (Millipore) as described in Example 384.

[2] = target: T1, LFA-1 binding to immobilized ICAM-1 (Homo sapiens, UniProt P05107+P20701); assay: LFA-1/ICAM-1 protein-protein assay (solid-phase ELISA); details: read-out: LFA-1/ICAM-1 Protein-Protein Assay IC50
T1 construct: made in house; host or cells: transfected 293 cells (LFA-1)
How it was run: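 Human 5dICAM-Ig (ICAM-1 extracellular domain–IgG Fc) coated on plates; membrane-bound LFA-1 from transfected 293 cells (280 ng/mL) added with compound in Mn2+-containing HEPES buffer pH 7.2, 2 h at 37° C. Bound LFA-1 detected via anti-β2 antibody and HRP/TMB at 450 nm; IC50s determined.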

T1 sequence (P20701 26-1170): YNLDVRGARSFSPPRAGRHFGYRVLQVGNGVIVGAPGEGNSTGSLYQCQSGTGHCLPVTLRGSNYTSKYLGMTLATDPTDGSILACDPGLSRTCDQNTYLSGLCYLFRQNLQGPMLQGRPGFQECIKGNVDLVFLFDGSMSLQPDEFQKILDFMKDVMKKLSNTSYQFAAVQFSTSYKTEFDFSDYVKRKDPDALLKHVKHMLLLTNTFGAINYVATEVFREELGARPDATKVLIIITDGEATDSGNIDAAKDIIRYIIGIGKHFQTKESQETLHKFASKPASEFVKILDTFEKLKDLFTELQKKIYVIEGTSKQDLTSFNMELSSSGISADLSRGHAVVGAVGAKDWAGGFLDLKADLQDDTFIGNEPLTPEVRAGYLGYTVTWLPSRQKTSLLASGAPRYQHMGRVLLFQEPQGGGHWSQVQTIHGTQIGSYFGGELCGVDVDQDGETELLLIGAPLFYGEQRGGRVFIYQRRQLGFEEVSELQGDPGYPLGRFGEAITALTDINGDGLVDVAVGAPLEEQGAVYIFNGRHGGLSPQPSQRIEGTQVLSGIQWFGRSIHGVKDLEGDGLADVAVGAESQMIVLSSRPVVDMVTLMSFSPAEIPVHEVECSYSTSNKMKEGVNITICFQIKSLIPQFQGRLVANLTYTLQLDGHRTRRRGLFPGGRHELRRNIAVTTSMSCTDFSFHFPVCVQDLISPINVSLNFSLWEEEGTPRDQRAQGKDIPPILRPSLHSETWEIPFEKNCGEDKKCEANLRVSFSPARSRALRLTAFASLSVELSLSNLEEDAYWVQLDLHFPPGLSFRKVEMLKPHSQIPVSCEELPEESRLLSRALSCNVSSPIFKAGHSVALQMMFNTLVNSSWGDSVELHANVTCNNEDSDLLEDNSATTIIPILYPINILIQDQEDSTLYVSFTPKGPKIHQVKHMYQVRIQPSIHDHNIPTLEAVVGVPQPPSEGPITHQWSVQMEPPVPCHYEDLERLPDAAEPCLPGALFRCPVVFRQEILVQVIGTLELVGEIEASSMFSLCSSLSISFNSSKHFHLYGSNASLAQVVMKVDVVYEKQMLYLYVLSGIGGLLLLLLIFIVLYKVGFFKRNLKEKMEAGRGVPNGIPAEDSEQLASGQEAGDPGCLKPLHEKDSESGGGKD
T1 sequence (P05107 23-769): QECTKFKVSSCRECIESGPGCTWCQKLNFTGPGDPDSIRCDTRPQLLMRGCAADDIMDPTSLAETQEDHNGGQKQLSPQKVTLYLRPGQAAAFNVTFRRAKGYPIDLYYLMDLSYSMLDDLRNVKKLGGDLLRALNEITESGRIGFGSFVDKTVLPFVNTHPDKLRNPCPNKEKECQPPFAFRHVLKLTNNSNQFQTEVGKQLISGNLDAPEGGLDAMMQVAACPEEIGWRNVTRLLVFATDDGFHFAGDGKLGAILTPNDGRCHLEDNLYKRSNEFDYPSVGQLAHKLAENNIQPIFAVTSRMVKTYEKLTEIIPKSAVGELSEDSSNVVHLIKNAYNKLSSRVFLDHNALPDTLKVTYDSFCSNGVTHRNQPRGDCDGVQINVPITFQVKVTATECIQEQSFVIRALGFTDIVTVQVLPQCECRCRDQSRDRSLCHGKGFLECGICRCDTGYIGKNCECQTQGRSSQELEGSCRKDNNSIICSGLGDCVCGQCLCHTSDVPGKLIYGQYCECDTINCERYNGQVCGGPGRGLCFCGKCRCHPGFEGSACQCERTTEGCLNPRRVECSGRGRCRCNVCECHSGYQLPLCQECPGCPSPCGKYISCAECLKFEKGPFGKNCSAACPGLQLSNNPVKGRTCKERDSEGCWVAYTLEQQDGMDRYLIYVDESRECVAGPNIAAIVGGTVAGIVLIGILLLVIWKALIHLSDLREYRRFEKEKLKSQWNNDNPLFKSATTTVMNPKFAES

Structure (SMILES)	IC50 [1]	IC50 [2]
COc1cccc(C(=O)NC[C@H](NC(=O)c2ccc(C(=O)NCc3cccc(O)c3)cc2Cl)C(=O)O)c1 [Example 76, N-[2-chloro-4-[[[(3-hydroxyphenyl)methyl]amino]-carbonyl]benzoyl]-3-(3-methoxybenzoylamino)-L-alanine]	63 nM	1.2 nM
CC1(C(=O)NC[C@H](NC(=O)c2ccc(C(=O)NCc3cccc(O)c3)cc2Cl)C(=O)O)CCCCC1 [Example 105]	94 nM	1.9 nM
Nc1cccc(C(=O)NC[C@H](NC(=O)c2ccc(C(=O)NCc3cccc(O)c3)cc2Cl)C(=O)O)c1 [Example 118]	37 nM	1.9 nM
NS(=O)(=O)c1ccc(C(=O)NC[C@H](NC(=O)c2ccc(C(=O)NCc3cccc(O)c3)cc2Cl)C(=O)O)cc1 [Example 119]	220 nM	3 nM
O=C(NCc1cccc(O)c1)c1ccc(C(=O)N[C@@H](CNC(=O)c2cccc(Cl)c2)C(=O)O)c(Cl)c1 [Example 123]	21 nM	0.8 nM
O=C(NCc1cccc(O)c1)c1ccc(C(=O)N[C@@H](CNC(=O)c2cccc(F)c2)C(=O)O)c(Cl)c1 [Example 131]	27 nM	0.8 nM
O=C(NCc1cccc(O)c1)c1ccc(C(=O)N[C@@H](CNC(=O)c2cccc(O)c2)C(=O)O)c(Cl)c1 [Example 132]	4.9 nM	0.6 nM
Cc1cccc(C(=O)NC[C@H](NC(=O)c2ccc(C(=O)NCc3cccc(O)c3)cc2Cl)C(=O)O)c1 [Example 138]	31 nM	0.7 nM
O=C(NCc1cccc(O)c1)c1ccc(C(=O)N[C@@H](CNC(=O)c2ccc(Br)s2)C(=O)O)c(Cl)c1 [Example 155]	65 nM	0.7 nM
Cc1ccc(C(=O)NC[C@H](NC(=O)c2ccc(C(=O)NCc3cccc(O)c3)cc2Cl)C(=O)O)s1 [Example 160]	23 nM	0.9 nM
O=C(NCc1cccc(O)c1)c1ccc(C(=O)N[C@@H](CNC(=O)c2ccsc2)C(=O)O)c(Cl)c1 [Example 161]	44 nM	1 nM
Cc1cccc(C(=O)NC[C@H](NC(=O)c2ccc(C(=O)NCc3cccc(O)c3)cc2Cl)C(=O)O)n1 [Example 163]	–	3.2 nM
O=C(NCc1cccc(O)c1)c1ccc(C(=O)N[C@@H](CNC(=O)c2cccnc2)C(=O)O)c(Cl)c1 [Example 165]	–	1.3 nM
C[C@@H](NC(=O)c1cc(Cl)c(C(=O)N[C@@H](CNC(=O)c2cccs2)C(=O)O)c(Cl)c1)c1cccc2ccccc12 [Example 346, N-[2,6-dichloro-4-[[[(1R)-1-(1-naphthalenyl)ethyl]amino]carbonyl]benzoyl]-3-[(thiophene-2-carbonyl)amino]-L-alanine]	9.7 nM	2.1 nM
C[C@@H](NC(=O)c1cc(Cl)c(C(=O)N[C@@H](CNC(=O)c2ccccc2)C(=O)O)c(Cl)c1)c1cccc2ccccc12 [Example 347]	16.1 nM	3.4 nM
O=C(NCc1cccc(O)c1)c1cc(Cl)c(C(=O)N[C@@H](CNC(=O)c2cccc(F)c2)C(=O)O)c(Cl)c1 [Example 349]	4.7 nM	1.1 nM

Structure (SMILES)	IC50 [1]	IC50 [2]
O=C(NCc1cccc(O)c1)c1cc(Cl)c(C(=O)N[C@@H](CNC(=O)c2cccc(O)c2)C(=O)O)c(Cl)c1 [Example 350]	0.7 nM	1 nM
COc1ccc(C(=O)NC[C@H](NC(=O)c2c(Cl)cc(C(=O)NCc3cccc(O)c3)cc2Cl)C(=O)O)cc1O [Example 351]	2.7 nM	0.8 nM
O=C(NCc1cccc(O)c1)c1cc(Cl)c(C(=O)N[C@@H](CNC(=O)c2sccc2Br)C(=O)O)c(Cl)c1 [Example 353]	18.6 nM	1.6 nM
O=C(NCc1cccc(O)c1)c1cc(Cl)c(C(=O)N[C@@H](CNC(=O)c2ccc(Br)s2)C(=O)O)c(Cl)c1 [Example 354]	4.7 nM	1 nM
Cc1ccc(C(=O)NC[C@H](NC(=O)c2c(Cl)cc(C(=O)NCc3cccc(O)c3)cc2Cl)C(=O)O)s1 [Example 358]	4.3 nM	0.2 nM
O=C(NCc1cccc(O)c1)c1ccc(C(=O)N[C@@H](CNS(=O)(=O)c2ccccc2)C(=O)O)c(Cl)c1 [Example 360, 3-(phenylsulfonylamino)-N-[2-chloro-4-[[[(3-hydroxyphenyl)methyl]amino]carbonyl]benzoyl]-L-alanine]	–	5.2 nM
CC(=O)Nc1nc(C)c(S(=O)(=O)NC[C@H](NC(=O)c2ccc(C(=O)N[C@H](C)c3cccc4ccccc34)cc2Cl)C(=O)O)s1 [Example 362]	–	8.8 nM
O=C(NCc1ccc(C(=O)N[C@@H](CNC(=O)c2ccccc2)C(=O)O)c(Cl)c1)c1cccc(O)c1 [Example 364, N-[2-chloro-4-[[(3-hydroxyphenyl)carbonyl]aminomethyl]benzoyl]-3-benzoylamino-L-alanine]	–	7.7 nM
O=C(NC[C@H](NC(=O)c1ccc(CNC(=O)c2ccccc2O)cc1Cl)C(=O)O)c1ccccc1 [Example 365]	–	18 nM
O=C(NCc1ccc(C(=O)N[C@@H](CNC(=O)c2ccccc2)C(=O)O)c(Cl)c1)c1cc(O)cc(O)c1 [Example 366]	–	3.4 nM
O=C(NCc1ccc(C(=O)N[C@@H](CNC(=O)c2ccccc2)C(=O)O)c(Cl)c1)c1ccc2[nH]ccc2c1 [Example 368]	–	11 nM
O=C(NCc1ccc(C(=O)N[C@@H](CNC(=O)c2ccccc2)C(=O)O)c(Cl)c1)c1ccc2cc[nH]c2c1 [Example 369]	–	8.5 nM
N=C(N)NC[C@H](NC(=O)c1ccc(C(=O)NCc2cccc(O)c2)cc1Cl)C(=O)O [Example 371, N-[2-chloro-4-[[[(3-hydroxyphenyl)methyl]amino]-carbonyl]benzoyl]-3-(aminoiminomethyl)amino-L-alanine]	–	10 nM
O=C(NC[C@H](NC(=O)c1ccc(/C=C/Cc2ccccc2)cc1Cl)C(=O)O)c1cccs1 [Example 373, N-[2-chloro-4-(3-phenyl-1-propenyl)benzoyl]-3-(thiophene-2-carbonyl)amino-L-alanine]	–	7.7 nM
O=C(NC[C@H](NC(=O)c1ccc(C(=O)[C@H]2C[C@@H]2c2ccccc2)cc1Cl)C(=O)O)c1cccs1 [Example 377]	–	19 nM
O=C(CCc1ccccc1)c1ccc(C(=O)N[C@@H](CNC(=O)c2cccs2)C(=O)O)c(Cl)c1 [Example 378]	–	9.7 nM
